According to patent publication US20260297080A1, “BICYCLIC COMPOUNDS AS CDK INHIBITORS” (BeOne Medicines I GmbH, priority 2022, published 2026):

What was measured:
CDK1/Cyclin B1 = CDK1/Cyclin B1 (Homo sapiens, UniProt P06493); test: CDK1/Cyclin B1 Biochemical Assay (TR-FRET), 0.015 mM ATP; conditions: 0.15 μM Rb (Ser780)-biotin substrate, pH7.0, 60 min preincubation, 120 min reaction, room temperature
Method in brief: (§1)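 Phosphorylation of a biotin-tagged Rb Ser780 peptide (0.15 μM) is measured by time-resolved FRET between a europium-labelled phospho-specific antibody and streptavidin-XL665. Compound (0–10 μM) sits with enzyme 60 min first; the kinase reaction then proceeds 120 min at room temperature, pH 7.0.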

CDK2/Cyclin E1 = CDK2/Cyclin E1 (Homo sapiens, UniProt P24941); test: CDK2/Cyclin E1 Biochemical Assay (TR-FRET), 0.060 mM ATP; conditions: 0.15 μM Rb (Ser780)-biotin substrate, pH7.0, 60 min preincubation, 120 min reaction, room temperature
Method in brief: as §1

CDK1/Cyclin B1, sequence (P06493 whole entry): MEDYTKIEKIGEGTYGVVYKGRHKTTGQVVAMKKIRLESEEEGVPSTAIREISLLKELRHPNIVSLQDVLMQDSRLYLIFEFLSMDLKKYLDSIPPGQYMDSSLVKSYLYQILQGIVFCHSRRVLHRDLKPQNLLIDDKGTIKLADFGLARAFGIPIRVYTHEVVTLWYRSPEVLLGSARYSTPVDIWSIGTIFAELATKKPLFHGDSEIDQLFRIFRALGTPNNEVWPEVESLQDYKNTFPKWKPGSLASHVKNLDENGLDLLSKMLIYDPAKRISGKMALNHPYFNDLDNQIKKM
CDK1/Cyclin B1, sequence (P14635 whole entry partner): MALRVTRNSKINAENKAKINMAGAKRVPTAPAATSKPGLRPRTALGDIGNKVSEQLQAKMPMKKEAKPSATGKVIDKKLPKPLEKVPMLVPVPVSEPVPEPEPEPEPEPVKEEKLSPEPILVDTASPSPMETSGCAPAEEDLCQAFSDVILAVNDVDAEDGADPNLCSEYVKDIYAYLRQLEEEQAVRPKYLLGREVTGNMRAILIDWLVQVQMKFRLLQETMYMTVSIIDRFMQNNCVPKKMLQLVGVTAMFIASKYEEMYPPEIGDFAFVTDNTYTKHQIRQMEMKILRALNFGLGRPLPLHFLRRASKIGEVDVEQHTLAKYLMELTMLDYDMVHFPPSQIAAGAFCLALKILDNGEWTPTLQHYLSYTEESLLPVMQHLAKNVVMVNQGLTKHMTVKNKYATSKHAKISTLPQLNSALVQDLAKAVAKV

Compound	IC50 (CDK1/Cyclin B1) [nM]	IC50 (CDK2/Cyclin E1) [nM]
CC(C)NC(=O)O[C@H]1CC[C@@H](c2cc(Nc3ccc4c(c3F)S(=O)(=O)CC4)n[nH]2)C1 (relative stereo) [Example 314, cis-3-(3-((7-fluoro-1,1-dioxido-2,3-dihydrobenzo[b]thiophen-6-yl)amino)-1H-pyrazol-5-yl)cyclopentyl isopropylcarbamate]	44	1.6
CCCNC(=O)O[C@H]1CC[C@@H](c2cc(Nc3ccc4c(c3F)CS(=O)(=O)N4)n[nH]2)C1 (single isomer, unassigned) [Example 387b]	37	2
C[C@@H](CO)NC(=O)O[C@H]1CC[C@@H](c2cc(Nc3ccc4c(c3F)CNS4(=O)=O)n[nH]2)C1 (single isomer, unassigned) [Example 328b]	1970	31
CC(C)NC(=O)O[C@H]1CC[C@@H](c2cc(Nc3cc(Cl)c4c(c3)S(=O)(=O)NC4)n[nH]2)C1 (relative stereo) [Example 184, cis-3-(3-((4-chloro-1,1-dioxido-2,3-dihydrobenzo[d]isothiazol-6-yl)amino)-1H-pyrazol-5-yl)cyclopentyl isopropylcarbamate]	4.1	1.5
CC(C)NC(=O)O[C@H]1CC[C@@H](c2cc(Nc3cc(F)c4c(c3)CS(=O)(=O)N4)n[nH]2)C1 (relative stereo) [Example 279, cis-3-(3-((7-fluoro-2,2-dioxido-1,3-dihydrobenzo[c]isothiazol-5-yl)amino)-1H-pyrazol-5-yl)cyclopentyl isopropylcarbamate]	43	0.7
[2H]C([2H])([2H])N1Cc2c(ccc(Nc3cc([C@@H]4CC[C@H](OC(=O)NC(C)C)C4)[nH]n3)c2F)S1(=O)=O (single isomer, unassigned) [Example 129b, cis-3-(3-((4-fluoro-2-(methyl-d3)-1,1-dioxido-2,3-dihydrobenzo[d]isothiazol-5-yl)amino)-1H-pyrazol-5-yl)cyclopentyl isopropylcarbamate]	185	2.6
CC(C)NC(=O)O[C@H]1CC[C@@H](c2cc(Nc3ccc4c(c3)C(F)(F)S(=O)(=O)N4)n[nH]2)C1 (relative stereo) [Example 334, cis-3-(3-((3,3-difluoro-2,2-dioxido-1,3-dihydrobenzo[c]isothiazol-5-yl)amino)-1H-pyrazol-5-yl)cyclopentyl isopropylcarbamate]	899	84
CC(C)NC(=O)O[C@H]1CC[C@@H](c2cc(Nc3ccc4c(c3F)CN(CC3CN(S(C)(=O)=O)C3)S4(=O)=O)n[nH]2)C1 (relative stereo) [Example 326, cis-3-(3-((4-fluoro-2-((1-(methylsulfonyl)azetidin-3-yl)methyl)-1,1-dioxido-2,3-dihydrobenzo[d]isothiazol-5-yl)amino)-1H-pyrazol-5-yl)cyclopentyl isopropylcarbamate]	290	6.6
CC(C)NC(=O)O[C@H]1CC[C@@H](c2cc(Nc3ccc4c(c3F)CN(C3CCCC3O)S4(=O)=O)n[nH]2)C1 (relative stereo) [Example 109, cis-3-(3-((4-fluoro-2-(2-hydroxycyclopentyl)-1,1-dioxido-2,3-dihydrobenzo[d]isothiazol-5-yl)amino)-1H-pyrazol-5-yl)cyclopentyl isopropylcarbamate]	1190	11
CC(C)NC(=O)O[C@H]1CC[C@@H](c2cc(Nc3ccc4c(c3F)C(F)(F)S(=O)(=O)N4)n[nH]2)C1 (relative stereo) [Example 356, cis-3-(3-((3,3,4-trifluoro-2,2-dioxido-1,3-dihydrobenzo[c]isothiazol-5-yl)amino)-1H-pyrazol-5-yl)cyclopentyl isopropylcarbamate]	1580	164
CCCNC(=O)O[C@H]1CC[C@@H](c2cc(Nc3ccc4c(c3F)C(C)NS4(=O)=O)n[nH]2)C1 (single isomer, unassigned) [Example 53b, cis-3-(3-((4-fluoro-3-methyl-1,1-dioxido-2,3-dihydrobenzo[d]isothiazol-5-yl)amino)-1H-pyrazol-5-yl)cyclopentyl propylcarbamate]	92	3.8
CC(C)NC(=O)O[C@H]1CC[C@@H](c2cc(Nc3ccc4c(c3F)CN(C3CCCC3)S4(=O)=O)n[nH]2)C1 (relative stereo) [Example 68, cis-3-(3-((2-cyclopentyl-4-fluoro-1,1-dioxido-2,3-dihydrobenzo[d]isothiazol-5-yl)amino-1H-pyrazol-5-yl)cyclopentyl isopropylcarbamate]	1180	15
Cc1cc2c(cc1Nc1cc([C@@H]3CC[C@H](OC(=O)NC(C)C)C3)[nH]n1)CNS2(=O)=O (relative stereo) [Example 25, cis-3-(3-((6-methyl-1,1-dioxido-2,3-dihydrobenzo[d]isothiazol-5-yl)amino)-1H-pyrazol-5-yl)cyclopentyl isopropylcarbamate]	271	11
O=C(NC1(CO)CC1)O[C@H]1CC[C@@H](c2cc(Nc3ccc4c(c3F)CNS4(=O)=O)n[nH]2)C1 (relative stereo) [Example 333, cis-3-(3-((4-fluoro-1,1-dioxido-2,3-dihydrobenzo[d]isothiazol-5-yl)amino)-1H-pyrazol-5-yl)cyclopentyl(1-(hydroxymethyl)cyclopropyl)carbamate]	402	10
CC(=O)N1CCC(N2Cc3c(ccc(Nc4cc([C@@H]5CC[C@H](OC(=O)NC(C)C)C5)[nH]n4)c3F)S2(=O)=O)C1 (relative stereo) [Example 80, cis-3-(3-((2-(1-acetylpyrrolidin-3-yl)-4-fluoro-1,1-dioxido-2,3-dihydrobenzo[d]isothiazol-5-yl)amino)-1H-pyrazol-5-yl)cyclopentyl isopropylcarbamate]	767	10
O=C(NC1CCC(O)CC1)O[C@H]1CC[C@@H](c2cc(Nc3ccc4c(c3F)CNS4(=O)=O)n[nH]2)C1 (single isomer, unassigned) [Example 142, cis-3-(3-((4-fluoro-1,1-dioxido-2,3-dihydrobenzo[d]isothiazol-5-yl)amino)-1H-pyrazol-5-yl)cyclopentyl(4-hydroxycyclohexyl)carbamate]	46	1.2
CCCNC(=O)O[C@H]1CC[C@@H](c2cc(Nc3ccc4c(c3F)CS(=O)(=O)N4C3COC3)n[nH]2)C1 (single isomer, unassigned) [Example 260b, cis-3-(3-((4-fluoro-1-(oxetan-3-yl)-2,2-dioxido-1,3-dihydrobenzo[c]isothiazol-5-yl)amino)-1H-pyrazol-5-yl)cyclopentyl propylcarbamate]	103	3.4
COCN1c2c(F)cc(Nc3cc([C@@H]4CC[C@H](OC(=O)NC(C)C)C4)[nH]n3)cc2CS1(=O)=O (relative stereo) [Example 282, cis-3-(3-((7-fluoro-1-(methoxymethyl)-2,2-dioxido-1,3-dihydrobenzo[c]isothiazol-5-yl)amino)-1H-pyrazol-5-yl)cyclopentyl isopropylcarbamate]	141	7.7
